Measured values published in EP0603240B1, “SAFENING HERBICIDAL PYRAZOLYLSULFONYLUREAS” (priority 1991, dated 1993).

Experiments:
Format in all cases: in vivo
[1] = system: corn; experiment: Example 13, Procedure II: Herbicide No. 1 + acetochlor (No. 6) with dichloroacetamide antidotes; settings: for safening of corn, assessment in words: Herbicide Nos. 1 and 6, Table 13
Method: (§1) Containers were filled and compacted with a fumigated silt loam top soil to a depth of about 1.3 cm from the top of the container. A first container was designated as an untreated control, a second container was designated as a herbicide control, and a third container was designated as a herbicide + antidote test container. Each of the containers was seeded with a crop species. A measured amount of herbicide dispersed or dissolved in acetone was applied to a measured quantity of soil. To this same quantity of soil treated with herbicide, there was added a measured amount of antidote dispersed or dissolved in acetone. The quantity of soil treated with the herbicide and antidote was thoroughly mixed to incorporate the herbicide and antidote in the soil uniformly. The seed bed in the third container of soil was covered with the soil treated with the herbicide and antidote and the container was leveled. For each test series, the seed beds of the first and second containers were likewise covered by soil layers. the cover layer of the first container was not treated with herbicide or antidote.
(§2) The containers were then placed on a bench in a greenhouse and sub-irrigated as required for the duration of the test. […] Plant response is measured in terms of percent injury. Antidote efficacy is indicated as the difference in plant injury by the herbicide(s) without the antidote and with the antidote.
(§3) This procedure is the same as Procedure I, but modified in the manner that after incorporation of the chemicals (herbicide and antidote) the containers with the covered seedbed were treated with an initial overhead irrigation equivalent to 0.6 cm rainfall, then subsequently sub-irrigated as required on greenhouse benches.
In this example a plurality of dichloroacetamide antidotes were tested for their safening efficacy against a herbicidal composition comprising Herbicide No. 1 and a co-herbicide, acetochlor (Herbicide No. 6) in corn in the presence of velvetleaf. The procedure used in this example was Procedure II above.

[2] = system: corn; experiment: Example 17, Procedure II: Herbicide No. 1 + vernolate (No. 11) with antidotes; settings: Table 17
Method: as §1
The containers were then placed on a bench in a greenhouse and sub-irrigated as required for the duration of the test. […] Plant response is measured in terms of percent injury. Antidote efficacy is indicated as the difference in plant injury by the herbicide(s) without the antidote and with the antidote. […]

[3] = system: corn; experiment: Example 1, greenhouse Procedure II: antidotes against Herbicide No. 1; settings: Herbicide No. 1, Table 1
Method: as §1, §2, §3
(§4) In the series of greenhouse tests described below, for routine screening purposes the herbicide/antidote compositions were tested in crop/weed combinations involving corn as the crop and either or both of the weeds barnyardgrass (Echinochloa crusgalli), a monocotyledonous weed, and velvetleaf (Abutilon theophrasti), a dicotyledonous weed. In the tables below, these weeds are indicated by the symbols "BYG" and "VL", respectively.
This example was designed to investigate the antidotal efficacy of a plurality of antidotes against Herbicide No. 1 in corn in the presence of barnyard grass and velvetleaf. The antidotes used in this example were Antidote Nos. 1-10, 12, 13 and 15.
The test in this example was conducted as described above for Procedure II. The antidotes were applied to the soil cover layer by pipet after spraying on the herbicide followed by incorporation and simulated rain.

[4] = system: corn; experiment: Example 12, Procedure II: Herbicide No. 1 + acetochlor (No. 6) with thirteen antidotes; settings: Herbicide No.6 2.24 kg/ha alone, no antidote
Method: as §1, §2, §3
This example was designed to investigate the efficacy of thirteen different antidotes from different classes of chemistry as safeners against compositions of Herbicide No. 1 and acetochlor (Herbicide No. 6) as co-herbicide. Acetochlor is the active ingredient in the commercial herbicides GUARDIAN® and WENNER®.
The test procedure used in this example was Procedure II described above.

[5] = system: corn; experiment: Example 4, Procedure I: Antidote Nos. 15 and 16 against Herbicide No. 1
Method: as §1, §2
(§5) This example describes tests with Antidote Nos. 15 and 16 to safen Herbicide No. 1 according to Procedure I using corn and the weeds barnyardgrass and velvetleaf as the test plants.

[6] = system: corn; experiment: Example 5, Procedure I: Herbicide No. 1 + alachlor (No. 7) with Antidote Nos. 15 and 16
Method: as §1, §2, §5
(§6) In the tests described in this example, the same procedure described in Example 4 was performed simultaneously therewith and under the same conditions, except that a co-herbicide, alachlor, was included in the same composition with Herbicide No. 1 and Antidote Nos. 15 and 16. Alachlor (Herbicide No. 7 herein) is the active ingredient in the commercial product LASSO® herbicide.

[7] = system: corn; experiment: Example 3, Procedure I: antidotes against Herbicide No. 1
Method: as §1, §2
(§7) This example details the results of tests with Antidote Nos. 12, 15 and 16 to safen Herbicide No. 1 over application rates ranging from 4.48 kg/ha down to 0.56 kg/ha, in corn in the presence of barnyardgrass. Procedure I described above was used in these tests.

[8] = system: barnyardgrass (Echinochloa crusgalli); experiment: Example 5, Procedure I: Herbicide No. 1 + alachlor (No. 7) with Antidote Nos. 15 and 16
Method: as §1, §2, §4, §5, §6

[9] = system: velvetleaf (Abutilon theophrasti); experiment: as above
Method: as §1, §2, §4, §5, §6

[10] = system: barnyardgrass (Echinochloa crusgalli); experiment: Example 3, Procedure I: antidotes against Herbicide No. 1
Method: as §1, §2, §4, §7

[11] = system: barnyardgrass (Echinochloa crusgalli); experiment: Example 4, Procedure I: Antidote Nos. 15 and 16 against Herbicide No. 1
Method: as §1, §2, §4, §5

[12] = system: velvetleaf (Abutilon theophrasti); experiment: as above
Method: as §1, §2, §4, §5

[13] = Herbicide No.1 4.48 + No.7 0.56 kg/ha + antidote 0.56 kg/ha
[14] = Herbicide No.1 4.48 + No.7 0.56 kg/ha + antidote 2.24 kg/ha
[15] = Herbicide No.1 4.48 + No.7 2.24 kg/ha + antidote 0.56 kg/ha
[16] = Herbicide No.1 4.48 + No.7 2.25 kg/ha + antidote 2.24 kg/ha
[17] = Herbicide No.1 6.72 + No.7 0.56 kg/ha + antidote 0.56 kg/ha
[18] = Herbicide No.1 6.72 + No.7 0.56 kg/ha + antidote 2.24 kg/ha
[19] = Herbicide No.1 6.72 + No.7 2.24 kg/ha + antidote 0.56 kg/ha
[20] = Herbicide No.1 6.72 + No.7 2.25 kg/ha + antidote 2.24 kg/ha
[21] = Herb. No. 1 4.48 kg/ha + antidote 0.56 kg/ha
[22] = Herb. No. 1 4.48 kg/ha + antidote 2.24 kg/ha
[23] = Herb. No. 1 6.72 kg/ha + antidote 0.56 kg/ha
[24] = Herb. No. 1 6.72 kg/ha + antidote 2.24 kg/ha
[25] = Herb. No. 1 0.56 kg/ha + antidote 0.56 kg/ha
[26] = Herb. No. 1 0.56 kg/ha + antidote 2.24 kg/ha
[27] = Herb. No. 1 0.56 kg/ha + antidote 8.96 kg/ha
[28] = Herb. No. 1 1.12 kg/ha + antidote 0.56 kg/ha
[29] = Herb. No. 1 1.12 kg/ha + antidote 2.24 kg/ha
[30] = Herb. No. 1 1.12 kg/ha + antidote 8.96 kg/ha
[31] = Herb. No. 1 2.24 kg/ha + antidote 0.56 kg/ha
[32] = Herb. No. 1 2.24 kg/ha + antidote 2.24 kg/ha
[33] = Herb. No. 1 2.24 kg/ha + antidote 8.96 kg/ha
[34] = Herb. No. 1 4.48 kg/ha + antidote 8.96 kg/ha
[35] = antidote 8.96 kg/ha alone, no herbicide

## CC1(C)CN2C(=O)CCC2(C)N(C(=O)C(Cl)Cl)C1 (stereo not drawn) [compound 14]
[1]; in vivo
  % Injury Corn: 5%

## O=C(C(Cl)Cl)N1CCCC12CCCC2 [Antidote No. 9, 1-Azaspiro[4,4]noname, 1-(dichloroacetyl)-]
[2]
  safening of corn, assessment in words: best overall safening performance
[3]
  safening of corn, assessment in words: best safening effect across quadruple treatments

## CCOCN(C(=O)CCl)c1c(C)cccc1CC [Herbicide No.6]
[4]
  % Injury Corn: 25%
[1]; Herbicide No.6 4.48 kg/ha alone, no antidote
  % Injury Corn: 50%

## CC1(C)CN2C(=O)CCC2(C)N(C(=O)C(Cl)Cl)C1 (stereo not drawn) [Antidote No. 14, 5-Dichloroacetyl-3,3,6-trimethyl-9-oxo-1,5-diazabicyclo[4.3.0]nonane]
[1]
  safening of corn, assessment in words: Commercial-level safening was exhibited at all rates and combinations

## CC1CN(C(=O)C(Cl)Cl)C(C)(C)O1 (stereo not drawn) [Antidote No. 5, Oxazolidine, 3-(dichloroacetyl)-2,2,5-trimethyl-]
[1]
  safening of corn, assessment in words: Commercial-level safening was exhibited at all rates and combinations

## CC1(C)OC(c2cccnc2)CN1C(=O)C(Cl)Cl (stereo not drawn) [Antidote No. 16, Pyridine, 3-[3-(dichloroacetyl)-2,2-dimethyl-5-oxazolidinyl]-]
[5]; Herbicide No. 1, Table 4
  safening of corn, assessment in words: substantial safening of Herbicide No. 1
[6]; Herbicide Nos. 1 and 7, Table 5
  safening of corn, assessment in words: substantial safening of corn
[7]; Herbicide No. 1, Table 3
  safening of corn, assessment in words: excellent protection for corn

## CC1(C)OC(c2cccnc2)CN1C(=O)C(Cl)Cl (stereo not drawn) [compound 16]
[8]; [13]
  % Injury BYG: 100%
[8]; [14]
  % Injury BYG: 100%
[8]; [15]
  % Injury BYG: 100%
[8]; [16]
  % Injury BYG: 100%
[8]; [17]
  % Injury BYG: 95%
[8]; [18]
  % Injury BYG: 100%
[8]; [19]
  % Injury BYG: 100%
[8]; [20]
  % Injury BYG: 100%
[9]; [13]
  % Injury VL: 95%
[9]; [14]
  % Injury VL: 95%
[9]; [15]
  % Injury VL: 98%
[9]; [16]
  % Injury VL: 98%
[9]; [17]
  % Injury VL: 98%
[9]; [18]
  % Injury VL: 95%
[9]; [19]
  % Injury VL: 98%
[9]; [20]
  % Injury VL: 99%
[5]; [21]
  % Injury Corn: 70%
[5]; [22]
  % Injury Corn: 15%
[5]; [23]
  % Injury Corn: 35%
[5]; [24]
  % Injury Corn: 30%
[6]; [13]
  % Injury Corn: 48%
[6]; [14]
  % Injury Corn: 18%
[6]; [15]
  % Injury Corn: 53%
[6]; [16]
  % Injury Corn: 40%
[6]; [17]
  % Injury Corn: 43%
[6]; [18]
  % Injury Corn: 55%
[6]; [19]
  % Injury Corn: 80%
[6]; [20]
  % Injury Corn: 55%
[10]; [25]
  % Injury BYG: 65%
[10]; [26]
  % Injury BYG: 60%
[10]; [27]
  % Injury BYG: 50%
[10]; [28]
  % Injury BYG: 70%
[10]; [29]
  % Injury BYG: 80%
[10]; [30]
  % Injury BYG: 85%
[10]; [31]
  % Injury BYG: 85%
[10]; [32]
  % Injury BYG: 90%
[10]; [33]
  % Injury BYG: 80%
[10]; [21]
  % Injury BYG: 75%
[10]; [22]
  % Injury BYG: 80%
[10]; [34]
  % Injury BYG: 95%
[10]; [35]
  % Injury BYG: 0%
[7]; [25]
  % Injury Corn: 0%
[7]; [26]
  % Injury Corn: 0%
[7]; [27]
  % Injury Corn: 0%
[7]; [28]
  % Injury Corn: 0%
[7]; [29]
  % Injury Corn: 0%
[7]; [30]
  % Injury Corn: 0%
[7]; [31]
  % Injury Corn: 5%
[7]; [32]
  % Injury Corn: 0%
[7]; [33]
  % Injury Corn: 0%
[7]; [21]
  % Injury Corn: 5%
[7]; [22]
  % Injury Corn: 5%
[7]; [34]
  % Injury Corn: 5%
[7]; [35]
  % Injury Corn: 0%
[11]; [21]
  % Injury BYG: 95%
[11]; [22]
  % Injury BYG: 95%
[11]; [23]
  % Injury BYG: 95%
[11]; [24]
  % Injury BYG: 95%
[12]; [21]
  % Injury VL: 95%
[12]; [22]
  % Injury VL: 95%
[12]; [23]
  % Injury VL: 95%
[12]; [24]
  % Injury VL: 95%
